ChEMBL document CHEMBL5052848, “Atf6 modulators and uses thereof” (2021)

Legend:
Type in all cases: cell-based
[1] = system: U2OS; test: Modulation of ATF6 activity in human U2OS cells at 10 uM in presence of ER stress inducer thapsigargin (Tg) measured by TRE-luciferase reporter assay relative to control
[2] = system: U2OS; test: Modulation of ATF6 activity in human U2OS cells at 1 uM measured by TRE-luciferase reporter assay relative to control
[3] = system: U2OS; test: Modulation of ATF6 activity in human U2OS cells at 1 uM in presence of ER stress inducer thapsigargin (Tg) measured by TRE-luciferase reporter assay relative to control
[4] = system: U2OS; test: Modulation of ATF6 activity in human U2OS cells at 10 uM measured by TRE-luciferase reporter assay relative to control

SMILES | Activity ([1]; filed as activator) [%] | Activity [2] [%] | Activity ([3]; filed as activator) [%] | Activity [4] [%] | Activity [3] [%] | Activity [1] [%]
CC(c1ccc(F)cc1F)n1cc(NC(=O)c2cc(-c3ccco3)on2)cn1 (stereo in doubt; 1-16) | 125 | 0 | 100 | 0 | – | –
Cc1c(NC(=O)c2cc(-c3ccco3)on2)cnn1C(C)c1c(F)cccc1Cl (stereo unspecified) | 100 | 0 | – | 0 | 75 | –
CC(c1ccc(F)cc1F)n1cc(NC(=O)c2cc(-c3ccco3)on2)cn1 (stereo in doubt; 1-5) | > 150 | – | 100 | – | – | –
O=C(Nc1cnn(C2CCc3cc(Cl)ccc32)c1)c1cc(-c2ccco2)on1 (single isomer, unassigned; enantiomer A) | – | – | – | – | 75 | < 50
O=C(Nc1cnn(Cc2ccccc2)c1)c1cc(-c2ccco2)on1 | 125 | – | 100 | – | – | –
O=C(Nc1cnn(Cc2ccc(C(F)(F)F)cc2)c1)c1cc(-c2ccco2)on1 | – | – | 100 | – | – | 75
CC(c1c(F)cccc1Cl)n1cc(NC(=O)c2cc(-c3ccco3)on2)cn1 (stereo in doubt; 1-4) | > 150 | – | > 150 | – | – | –
O=C(Nc1cnn(C2CCc3cc(Cl)ccc32)c1)c1cc(-c2ccco2)on1 (single isomer, unassigned; enantiomer B) | – | – | – | – | 75 | 75
CC(c1c(F)cccc1Cl)n1cc(NC(=O)c2cc(-c3ccco3)on2)cn1 (stereo in doubt; 1-15) | 100 | 0 | 100 | 0 | – | –
CC(c1c(Cl)cccc1Cl)n1cc(NC(=O)c2cc(-c3cccs3)on2)cn1 (stereo unspecified) | 100 | 0 | – | 0 | 75 | –
CC(c1c(Cl)cccc1Cl)n1cc(NC(=O)c2cc(-c3ccco3)on2)cn1 (stereo unspecified) | > 150 | 0 | > 150 | 0 | – | –
CC(c1c(Cl)cccc1Cl)n1cc(NC(=O)c2cc(-c3ccco3)on2)cn1 (single isomer, unassigned) | 100 | – | 125 | – | – | –
O=C(Nc1cnn(Cc2ccc(C(F)(F)F)cc2C(F)(F)F)c1)c1cc(-c2ccco2)on1 | – | – | – | – | < 50 | < 50
CC(c1ccc(F)cc1Cl)n1cc(NC(=O)c2cc(-c3ccco3)on2)cn1 (stereo unspecified) | – | – | 100 | – | – | 75
CC(c1ccc(C(F)(F)F)cc1C(F)(F)F)n1cc(NC(=O)c2cc(-c3cnccn3)no2)cn1 (stereo in doubt; 1-26) | – | – | – | – | < 50 | < 50
O=C(Nc1cnn(C2CCc3cc(C(F)(F)F)ccc32)c1)c1cc(-c2cnccn2)on1 (stereo unspecified) | – | – | – | – | 75 | 75
CC(c1ccc(C(F)(F)F)cc1C(F)(F)F)n1cc(NC(=O)c2cc(-c3cnccn3)no2)cn1 (stereo in doubt; 1-25) | – | – | – | – | 75 | 75
O=C(Nc1cnn(C2CCCc3ccccc32)c1)c1cc(-c2ccco2)on1 (stereo unspecified) | 125 | – | 100 | – | – | –
CC(c1ccc(C(F)(F)F)cc1C(F)(F)F)n1cc(NC(=O)c2cc(-c3cnccn3)no2)cn1 (stereo in doubt; 1-11) | – | – | – | – | 50 | < 50
CC(c1c(F)cccc1Cl)n1cc(NC(=O)c2cc(-c3ccco3)on2)cn1 (stereo in doubt; 1-14) | > 150 | 0 | > 150 | 0 | – | –
CC(c1ccc(F)cc1F)n1cc(NC(=O)c2cc(-c3ccco3)on2)cn1 (stereo in doubt; 1-17) | 100 | 0 | 100 | 0 | – | –
